The results in this text go back to patent publication US10076519B2 (CYTOKINETICS, INC., priority 2010, dated 2018).

The first assay relates to rabbit skeletal myofibrils (fast skeletal myofibrils). The assay can be described thus: Activation of fast skeletal myofibrils (PUMA assay, PK/LDH-coupled ATPase at pCa25). Format: biochemical. To be noted: AC1.4 determined according to the procedure of Example 39; reported as class symbols. The essentials: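 Detergent-washed rabbit psoas myofibrils (~90% fast fibres, calcium-regulated) assayed at calcium giving 25% of maximal ATPase rate (pCa25). ADP turnover coupled via pyruvate kinase/lactate dehydrogenase to NADH oxidation, read at 340 nm. Buffer 12 mM PIPES, 2 mM MgCl2, 1 mM DTT, pH 6.8; AC1.4 values derived.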
For the molecule `NC(=O)c1cccc(-c2ccc(NCCc3cnccn3)nn2)c1` [3-{6-[(2-pyrazin-2-ylethyl)amino]pyridazin-3-yl}benzamide], the “Mean AC1.4” value is “D (D=>20 uM)”.

As to `CC(C)(C)CCNc1ccc(-c2cccc(C(N)=O)c2)nn1` [3-{6-[(3,3-dimethylbutyl)amino]pyridazin-3-yl}benzamide], the “Mean AC1.4” value is “D (D=>20 uM)”.

In the case of `NC(=O)c1cccc(-c2ccc(NCC3CCc4ccccc43)nn2)c1` (stereo not shown) [3-{6-[(indanylmethyl)amino]pyridazin-3-yl}benzamide], the “Mean AC1.4” value was “B (B=1-10 uM)”.

Regarding `CC(C)(CNc1ccc(C2=CCN(S(C)(=O)=O)CC2)nn1)c1ccc(F)cc1` [4-(6-{[2-(4-fluorophenyl)-2-methylpropyl]amino}pyridazin-3-yl)-1-(methylsulfonyl)-1,2,5,6-tetrahydropyridine], the “Mean AC1.4” value is on record as “B (B=1-10 uM)”.

On to `CC(C)(CNc1ccc(-c2ccc(C(N)=O)cc2)nn1)c1ccc(F)cc1` [4-(6-{[2-(4-fluorophenyl)-2-methylpropyl]amino}pyridazin-3-yl)benzamide], for which the “Mean AC1.4” value was “B (B=1-10 uM)”.

In the case of `CC(C)(CNc1ccc(-c2ccc(C#N)cc2)nn1)c1ccc(F)cc1` [4-(6-{[2-(4-fluorophenyl)-2-methylpropyl]amino}pyridazin-3-yl)benzenecarbonitrile], the “Mean AC1.4” value is given as “B (B=1-10 uM)”.

For `CC(C)(CNc1ccc(-c2ccc(C(=O)c3ccccc3)cc2)nn1)c1ccc(F)cc1` [4-(6-{[2-(4-fluorophenyl)-2-methylpropyl]amino}pyridazin-3-yl)phenyl phenyl ketone], the “Mean AC1.4” value is “D (D=>20 uM)”.

Consider `CC(C)(CNc1ccc(C(=O)N2CCNC(=O)C2)nn1)c1ccc(F)cc1` [4-[(6-{[2-(4-fluorophenyl)-2-methylpropyl]amino}pyridazin-3-yl)carbonyl]piperazin-2-one], for which the “Mean AC1.4” value was “D (D=>20 uM)”.

Take `CC(C)(CNc1ccc(C(=O)N2CCNC(C(N)=O)C2)nn1)c1ccc(F)cc1` (stereo not shown) [4-[(6-{[2-(4-fluorophenyl)-2-methylpropyl]amino}pyridazin-3-yl)carbonyl]piperazine-2-carboxamide]: the “Mean AC1.4” value was “D (D=>20 uM)”.

On to `CC(C)(CNc1ccc(-c2cncc(C#N)c2)nn1)c1ccccc1Cl` [5-(6-{[2-(2-chlorophenyl)-2-methylpropyl]amino}pyridazin-3-yl)pyridine-3-carbonitrile], for which the “Mean AC1.4” value is given as “B (B=1-10 uM)”.

As to `CC(C)(CNc1ccc(-c2cncc(C(N)=O)c2)nn1)c1ccccc1Cl` [5-(6-{[2-(2-chlorophenyl)-2-methylpropyl]amino}pyridazin-3-yl)pyridine-3-carboxamide], the “Mean AC1.4” value is listed as “B (B=1-10 uM)”.

Consider `CC(C)(CNc1ccc(-c2ccc3[nH]c(O)nc3c2)nn1)c1ncccc1F` [5-(6-{[2-(3-fluoro(2-pyridyl))-2-methylpropyl]amino}pyridazin-3-yl)benzimidazol-2-ol], for which the “Mean AC1.4” value is “A (A=<1 uM)”.

For `CC(C)(CNc1ccc(-c2n[nH]c(=O)o2)nn1)c1ccc(F)cc1` [5-(6-{[2-(4-fluorophenyl)-2-methylpropyl]amino}pyridazin-3-yl)-1,3,4-oxadiazolin-2-one], the “Mean AC1.4” value is recorded as “C (C=10-20 uM)”.

For `CC(C)(CNc1ccc(-c2ccc3[nH]nc(C#N)c3c2)nn1)c1ccc(F)cc1` [5-(6-{[2-(4-fluorophenyl)-2-methylpropyl]amino}pyridazin-3-yl)-1H-indazole-3-carbonitrile], the “Mean AC1.4” value is listed as “D (D=>20 uM)”.

Regarding `CC(C)(CNc1ccc(-c2ccc3[nH]nc(C(N)=O)c3c2)nn1)c1ccc(F)cc1` [5-(6-{[2-(4-fluorophenyl)-2-methylpropyl]amino}pyridazin-3-yl)-1H-indazole-3-carboxamide], the “Mean AC1.4” value is on record as “A (A=<1 uM)”.

On to `CC(C)(CNc1ccc(-c2ccc3[nH]nc(C(=N)N)c3c2)nn1)c1ccc(F)cc1` [5-(6-{[2-(4-fluorophenyl)-2-methylpropyl]amino}pyridazin-3-yl)-1H-indazole-3-carboxamidine], for which the “Mean AC1.4” value is “B (B=1-10 uM)”.

With `CC(C)(CNc1ccc(-c2cc(C(N)=O)c3[nH]ncc3c2)nn1)c1ccc(F)cc1` [5-(6-{[2-(4-fluorophenyl)-2-methylpropyl]amino}pyridazin-3-yl)-1H-indazole-7-carboxamide], the “Mean AC1.4” value was “B (B=1-10 uM)”.

Still in this assay, the particulars now being: median AC1.4 class, procedure of Example 39.
Turning to `NC(=O)c1cccc(-c2ccc(NC3(c4ccccn4)CCC3)nn2)c1` [3-{6-[(2-pyridylcyclobutyl)amino]pyridazin-3-yl}benzamide], the “Mean AC1.4” value is “D (D=>20 uM)”.

For `CC(C)(C)Nc1ccc(-c2cccc(C(N)=O)c2)nn1` [3-{6-[(tert-butyl)amino]pyridazin-3-yl}benzamide], the “Mean AC1.4” value is reported as “C (C=10-20 uM)”.

With `O=C(c1cnc(-c2ccc(NCC3(c4ncccc4F)CCC3)nn2)s1)N1CCS(=O)(=O)CC1` [4-({2-[6-({[(3-fluoro-2-pyridyl)cyclobutyl]methyl}ami-no)pyridazin-3-yl]-1,3-thiazol-5-yl}carbonyl)-1,4-thiazaperhydroine-1,1-dione], the “Mean AC1.4” value was “B (B=1-10 uM)”.

Consider `O=C1CN(C(=O)c2cnc(-c3ccc(NCC4(c5ncccc5F)CCC4)nn3)s2)CCN1` [4-({2-[6-({[(3-fluoro-2-pyridyl)cyclobutyl]methyl}ami-no)pyridazin-3-yl]-1,3-thiazol-5-yl}carbonyl)piperazin-2-one], for which the “Mean AC1.4” value is “C (C=10-20 uM)”.

In the case of `NC(=O)C1CN(C(=O)c2cnc(-c3ccc(NCC4(c5ncccc5F)CCC4)nn3)s2)CCN1` (stereo not shown) [4-({2-[6-({[(3-fluoro-2-pyridyl)cyclobutyl]methyl}ami-no)pyridazin-3-yl]-1,3-thiazol-5-yl}carbonyl)piperazine-2-carboxamide], the “Mean AC1.4” value is recorded as “B (B=1-10 uM)”.

With `NC(=O)c1nc(-c2ccc(NCC3(c4ncccc4F)CCC3)nn2)cs1` [4-[6-({[(3-fluoro-2-pyridyl)cyclobutyl]methyl}ami-no)pyridazin-3-yl]-1,3-thiazole-2-carboxamide], the “Mean AC1.4” value is listed as “B (B=1-10 uM)”.

With `NC(=O)c1nccc(-c2ccc(NCC3(c4ncccc4F)CCC3)nn2)n1` [4-[6-({[(3-fluoro-2-pyridyl)cyclobutyl]methyl}ami-no)pyridazin-3-yl]pyrimidine-2-carboxamide], the “Mean AC1.4” value is given as “D (D=>20 uM)”.

For `CC(C)(Nc1ccc(-c2cc(C(N)=O)ccc2F)nn1)c1ncccc1F` [4-fluoro-3-(6-{[1-(3-fluoro(2-pyridyl))-isopropyl]amino}pyridazin-3-yl)benzamide], the “Mean AC1.4” value is recorded as “B (B=1-10 uM)”.

For `CC(C)(Nc1ccc(-c2cc(C(N)=O)ccc2F)nn1)c1ccc(F)cc1` [4-fluoro-3-(6-{[1-(4-fluorophenyl)-isopropyl]amino}pyridazin-3-yl)benzamide], the “Mean AC1.4” value was “A (A=<1 uM)”.

For the molecule `N#Cc1ccc(F)c(-c2ccc(NC[C@]3(c4ncccc4F)C[C@H](F)C3)nn2)c1` [4-fluoro-3-[6-({[3-fluoro-1-(3-fluoro(2-pyridyl))cyclobutyl]methyl}ami-no)pyridazin-3-yl]benzenecarbonitrile], the “Mean AC1.4” value is reported as “B (B=1-10 uM)”.

For `O=C(O)c1ccc(F)c(-c2ccc(NC[C@]3(c4ncccc4F)C[C@H](F)C3)nn2)c1` [4-fluoro-3-[6-({[3-fluoro-1-(3-fluoro(2-pyridyl))cyclobutyl]methyl}ami-no)pyridazin-3-yl]benzoic acid], the “Mean AC1.4” value is “A (A=<1 uM)”.

Regarding `CC(C)(Nc1ccc(-c2ccc(C(N)=O)cc2)nn1)c1ccccc1` [4-{6-[(1-methyl-1-phenylethyl)amino]pyridazin-3-yl}benzamide], the “Mean AC1.4” value is given as “C (C=10-20 uM)”.

Staying with this assay, now noted: median AC1.4 reported as class; procedure of Example 39.
For `O=S1(=O)CCN(Cc2cnc(-c3ccc(NCC4(c5ncccc5F)CCC4)nn3)s2)CC1` [4-({2-[6-({[(3-fluoro-2-pyridyl)cyclobutyl]methyl}ami-no)pyridazin-3-yl]-1,3-thiazol-5-yl}methyl)-1,4-thiazaperhydroine-1,1-dione], the “Mean AC1.4” value is given as “D (D=>20 uM)”.

Take `O=C1NCc2c1cccc2-c1ccc(NC[C@]2(c3ncccc3F)C[C@H](F)C2)nn1` [4-[6-({[3-fluoro-1-(3-fluoro(2-pyridyl))cyclobutyl]methyl}ami-no)pyridazin-3-yl]isoindolin-1-one]: the “Mean AC1.4” value is on record as “B (B=1-10 uM)”.

`NC(=O)c1ccc(F)c(-c2ccc(NC[C@]3(c4ncccc4F)C[C@H](F)C3)nn2)c1O` [4-fluoro-3-[6-({[3-fluoro-1-(3-fluoro(2-pyridyl))cyclobutyl]methyl}ami-no)pyridazin-3-yl]-2-hydroxybenzamide]: the “Mean AC1.4” value is recorded as “A (A=<1 uM)”.

In the case of `Cc1cc(NCC2(c3ncccc3F)CCC2)nnc1-c1cc(C(N)=O)ccc1F` [4-fluoro-3-[6-({[(3-fluoro(2-pyridyl))cyclobutyl]methyl}ami-no)-4-methylpyridazin-3-yl]benzamide], the “Mean AC1.4” value was “C (C=10-20 uM)”.

In the case of `NC(=O)c1ccc(F)c(-c2ccc(NCC3(c4ncccc4F)CCC3)nn2)c1O` [4-fluoro-3-[6-({[(3-fluoro(2-pyridyl))cyclobutyl]methyl}ami-no)pyridazin-3-yl]-2-hydroxybenzamide], the “Mean AC1.4” value is given as “A (A=<1 uM)”.

For the molecule `NC(=O)c1cc(-c2ccc(NC[C@]3(c4ncccc4F)C[C@H](F)C3)nn2)c(F)cc1O` [4-fluoro-5-[6-({[3-fluoro-1-(3-fluoro(2-pyridyl))cyclobutyl]methyl}ami-no)pyridazin-3-yl]-2-hydroxybenzamide], the “Mean AC1.4” value was “A (A=<1 uM)”.

On to `NC(=O)c1cc(-c2ccc(NCC3(c4ncccc4F)CCC3)nn2)c(F)cc1O` [4-fluoro-5-[6-({[(3-fluoro(2-pyridyl))cyclobutyl]methyl}ami-no)pyridazin-3-yl]-2-hydroxybenzamide], for which the “Mean AC1.4” value was “A (A=<1 uM)”.

On to `Cn1cc(NC(=O)c2ccc(NCC3(c4ncccc4F)CCC3)nn2)nc1C(N)=O` [4-{[6-({[(3-fluoro(2-pyridyl))cyclobutyl]methyl}ami-no)pyridazin-3-yl]carbonylamino}-1-methylimidazole-2-carboxamide], for which the “Mean AC1.4” value is “D (D=>20 uM)”.
